Experimental data from ChEMBL document CHEMBL4414679, “Discovery of 4,6-pyrimidinediamine derivatives as novel dual EGFR/FGFR inhibitors aimed EGFR/FGFR1-positive NSCLC” (Eur J Med Chem, 2020).
Activity calls are given as the source filed them. The rule behind the calls is not given here.

Tests used:
[1] = target: Mitogen-activated protein kinase 9 (Homo sapiens) (UniProt P45984); test: Inhibition of human recombinant full length His-tagged JNK2 expressed in baculovirus expression system at 10 uM using FAM-labelled peptide as substrate pre-incubated for 10 mins followed by substrate addition by mobility shift assay relative to control
[2] = target: CDK2/Cyclin A2 (Homo sapiens) (UniProt P24941+P20248); test: Inhibition of CDK2/cyclin A2 (unknown origin) at 10 uM using FAM-labelled peptide as substrate pre-incubated for 10 mins followed by substrate addition by mobility shift assay relative to control; format: protein-complex assay
[3] = Induction of apoptosis in gefitinib-insensitive human HCC827GR cells assessed as early apoptotic cells at 10 uM measured after 24 hrs by Annexin-V/propidium iodide staining-based flow cytometric analysis (reference value: 1.9%); format: functional
NCI-H226 [4] = test: Induction of apoptosis in human NCI-H226 cells assessed as late apoptotic cells at 1 uM measured after 24 hrs by Annexin-V/propidium iodide staining-based flow cytometric analysis (reference value: 2.8%); format: functional
[5] = target: Fibroblast growth factor receptor 3 (Homo sapiens) (UniProt P22607); test: Inhibition of N-terminal GST tagged human FGFR3 cytoplasmic domain (436 to 806 AA) expressed in baculovirus at 10 uM using FAM-labelled peptide as substrate pre-incubated for 10 mins followed by substrate addition by mobility shift assay relative to control
[6] = Induction of apoptosis in gefitinib-insensitive human HCC827GR cells assessed as viable cells at 10 uM measured after 24 hrs by Annexin-V/propidium iodide staining-based flow cytometric analysis (reference value: 90.8%); format: functional; details: read-out: Activity
[7] = Antiproliferative activity against gefitinib-resistant human HCC827GR cells incubated for 48 hrs by MTT assay; format: functional
Homo sapiens = species: Homo sapiens; test: Inhibition of colony formation in gefitinib-insensitive human HCC827GR cells measured after 24 hrs by crystal violet staining based assay; format: functional
[8] = target: Fibroblast growth factor receptor 1 (Homo sapiens, UniProt P11362); test: Inhibition of FGFR in serum-starved human H520 cells assessed as reduction in FGFR-induced AKT phosphorylation upto 10 uM incubated for 1 hr by Western blot analysis
[9] = target: Mitogen-activated protein kinase 3 (Homo sapiens) (UniProt P27361); test: Inhibition of full length N-terminal GST-tagged human ERK1 (1 to 379 AA) expressed in Escherichia coli at 10 uM using FAM-labelled peptide as substrate pre-incubated for 10 mins followed by substrate addition by mobility shift assay relative to control
[10] = target: Platelet-derived growth factor receptor alpha (Homo sapiens) (UniProt P16234); test: Inhibition of N-terminal GST tagged human PDGFRalpha cytoplasmic domain (550 to 1089 AA) expressed in baculovirus at 10 uM using FAM-labelled peptide as substrate pre-incubated for 10 mins followed by substrate addition by mobility shift assay relative to control
[11] = target: CDK7/Cyclin H/MNAT1 (Homo sapiens) (UniProt P51946+P50613+P51948); test: Inhibition of full length N-terminal GST-tagged human CDK7 (1 to 346 AA) coexpressed with CyclinH (1 to 323 AA)and MAT1 (1 to 309) in baculovirus at 10 uM using FAM-labelled peptide as substrate pre-incubated for 10 mins followed by substrate addition by mobility shift assay relative to control; format: protein-complex assay
[12] = Antitumor activity against human HCC827GR cells xenografted in BALB/c nude mouse assessed as reduction in tumor weight at 15 mg/kg, ip dosed every 2 days (reference value: 0.82 +/- 0.06 g); format: functional
[13] = target: RAC-alpha serine/threonine-protein kinase (Homo sapiens) (UniProt P31749); test: Inhibition of N-terminal GST tagged human AKT1 catalytic domain (104 to 480 AA) expressed in baculovirus at 10 uM using FAM-labelled peptide as substrate pre-incubated for 10 mins followed by substrate addition by mobility shift assay relative to control
[14] = target: Platelet-derived growth factor receptor beta (Homo sapiens) (UniProt P09619); test: Inhibition of N-terminal GST tagged human PDGFRbeta cytoplasmic domain (557 to 1106 AA) expressed in baculovirus at 10 uM using FAM-labelled peptide as substrate pre-incubated for 10 mins followed by substrate addition by mobility shift assay relative to control
[15] = Induction of apoptosis in gefitinib-insensitive human HCC827GR cells assessed as early apoptotic cells at 5 uM measured after 24 hrs by Annexin-V/propidium iodide staining-based flow cytometric analysis (reference value: 1.9%); format: functional
NCI-H226 [16] = test: Induction of apoptosis in human NCI-H226 cells assessed as early apoptotic cells at 5 uM measured after 24 hrs by Annexin-V/propidium iodide staining-based flow cytometric analysis (reference value: 0.8%); format: functional
[17] = target: Tyrosine-protein kinase JAK2 (Homo sapiens) (UniProt O60674); test: Inhibition of N-terminal GST tagged human JAK2 catalytic domain (826 to 1132 AA) expressed in baculovirus at 10 uM using FAM-labelled peptide as substrate pre-incubated for 10 mins followed by substrate addition by mobility shift assay relative to control
[18] = target: Epidermal growth factor receptor (Homo sapiens, UniProt P00533); test: Inhibition of N-terminal GST-tagged human EGFR (d746-750AA) expressed in baculovirus using FAM-labelled peptide as substrate pre-incubated for 10 mins followed by substrate addition by mobility shift assay
[19] = Half-life in Sprague-Dawley rat at 30 mg/kg, po measured upto 24 hrs by UPLC-MS/MS; format: ADME, organism-based; details: in vivo
HCC827 = test: Antiproliferative activity against human HCC827 cells assessed as inhibition of cell growth at 10 uM incubated for 48 hrs by MTT assay relative to control; format: functional; details: HCC827, 48 h
[20] = AUC (0 to 24 hrs) in Sprague-Dawley rat at 30 mg/kg, po measured upto 24 hrs by UPLC-MS/MS; format: ADME, organism-based; design: time < 24 hr, dose 30 mg/kg, route oral; details: in vivo
[21] = target: RAC-beta serine/threonine-protein kinase (Homo sapiens) (UniProt P31751); test: Inhibition of N-terminal GST tagged human AKT2 catalytic domain (120 to 481 AA) expressed in baculovirus at 10 uM using FAM-labelled peptide as substrate pre-incubated for 10 mins followed by substrate addition by mobility shift assay relative to control
NCI-H226 [22] = test: Induction of apoptosis in human NCI-H226 cells assessed as late apoptotic cells at 5 uM measured after 24 hrs by Annexin-V/propidium iodide staining-based flow cytometric analysis (reference value: 2.8%); format: functional
NCI-H226 [23] = test: Antiproliferative activity against human NCI-H226 cells incubated for 48 hrs by MTT assay; format: functional, cell-based; details: NCI-H226, 48 h
[24] = target: CDK6/cyclin D3 (Homo sapiens) (UniProt P30281+Q00534); test: Inhibition of N-terminal GST tagged truncated human CDK6 (1 to 326 AA) coexpressed with CyclinD3 (1 to 292 AA) in baculovirus at 10 uM using FAM-labelled peptide as substrate pre-incubated for 10 mins followed by substrate addition by mobility shift assay relative to control; format: protein-complex assay
[25] = Induction of apoptosis in gefitinib-insensitive human HCC827GR cells assessed as viable cells at 2.5 uM measured after 24 hrs by Annexin-V/propidium iodide staining-based flow cytometric analysis (reference value: 90.8%); format: functional; details: read-out: Activity

Sequence of Mitogen-activated protein kinase 9 (Homo sapiens) (P45984 whole entry, looked up): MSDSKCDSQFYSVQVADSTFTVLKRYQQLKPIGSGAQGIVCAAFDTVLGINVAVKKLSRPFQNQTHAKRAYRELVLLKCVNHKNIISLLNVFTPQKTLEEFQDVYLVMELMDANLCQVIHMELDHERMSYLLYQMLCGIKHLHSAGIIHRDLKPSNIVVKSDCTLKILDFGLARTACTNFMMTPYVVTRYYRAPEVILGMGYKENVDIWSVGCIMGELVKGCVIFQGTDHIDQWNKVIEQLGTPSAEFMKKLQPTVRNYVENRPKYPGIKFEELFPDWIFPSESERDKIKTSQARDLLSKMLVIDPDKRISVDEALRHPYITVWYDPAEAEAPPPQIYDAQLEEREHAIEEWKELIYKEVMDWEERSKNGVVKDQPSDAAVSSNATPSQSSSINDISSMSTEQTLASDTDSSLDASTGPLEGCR
Sequence of Platelet-derived growth factor receptor alpha (Homo sapiens) (P16234 whole entry, the tested form may be a part): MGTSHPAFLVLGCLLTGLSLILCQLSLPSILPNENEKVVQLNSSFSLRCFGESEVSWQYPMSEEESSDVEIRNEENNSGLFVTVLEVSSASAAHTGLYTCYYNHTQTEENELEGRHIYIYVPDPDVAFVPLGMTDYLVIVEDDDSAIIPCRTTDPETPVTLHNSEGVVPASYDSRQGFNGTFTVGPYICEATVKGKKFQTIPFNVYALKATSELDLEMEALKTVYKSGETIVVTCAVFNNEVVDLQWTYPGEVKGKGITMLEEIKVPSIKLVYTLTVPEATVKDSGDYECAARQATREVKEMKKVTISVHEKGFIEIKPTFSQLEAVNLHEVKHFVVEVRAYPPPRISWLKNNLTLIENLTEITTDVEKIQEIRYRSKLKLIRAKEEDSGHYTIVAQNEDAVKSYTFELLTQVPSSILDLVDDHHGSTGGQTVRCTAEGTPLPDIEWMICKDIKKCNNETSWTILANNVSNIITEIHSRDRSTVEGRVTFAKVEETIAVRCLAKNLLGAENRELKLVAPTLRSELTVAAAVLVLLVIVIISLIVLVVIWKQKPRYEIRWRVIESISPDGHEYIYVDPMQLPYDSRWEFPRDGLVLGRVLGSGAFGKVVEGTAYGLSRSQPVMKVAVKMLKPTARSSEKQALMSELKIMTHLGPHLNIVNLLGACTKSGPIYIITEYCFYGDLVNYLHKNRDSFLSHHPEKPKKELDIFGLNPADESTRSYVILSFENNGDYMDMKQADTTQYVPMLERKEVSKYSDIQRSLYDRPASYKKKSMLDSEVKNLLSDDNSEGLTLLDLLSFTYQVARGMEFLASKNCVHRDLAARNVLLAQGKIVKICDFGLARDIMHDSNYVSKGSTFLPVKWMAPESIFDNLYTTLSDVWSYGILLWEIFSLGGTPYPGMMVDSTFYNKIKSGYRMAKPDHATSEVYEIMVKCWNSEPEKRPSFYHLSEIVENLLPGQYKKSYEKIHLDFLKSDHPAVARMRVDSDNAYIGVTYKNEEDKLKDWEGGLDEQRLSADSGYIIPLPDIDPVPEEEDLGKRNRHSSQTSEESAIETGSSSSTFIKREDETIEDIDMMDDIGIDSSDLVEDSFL
Sequence of Fibroblast growth factor receptor 3 (Homo sapiens) (P22607 23-806 limits assumed): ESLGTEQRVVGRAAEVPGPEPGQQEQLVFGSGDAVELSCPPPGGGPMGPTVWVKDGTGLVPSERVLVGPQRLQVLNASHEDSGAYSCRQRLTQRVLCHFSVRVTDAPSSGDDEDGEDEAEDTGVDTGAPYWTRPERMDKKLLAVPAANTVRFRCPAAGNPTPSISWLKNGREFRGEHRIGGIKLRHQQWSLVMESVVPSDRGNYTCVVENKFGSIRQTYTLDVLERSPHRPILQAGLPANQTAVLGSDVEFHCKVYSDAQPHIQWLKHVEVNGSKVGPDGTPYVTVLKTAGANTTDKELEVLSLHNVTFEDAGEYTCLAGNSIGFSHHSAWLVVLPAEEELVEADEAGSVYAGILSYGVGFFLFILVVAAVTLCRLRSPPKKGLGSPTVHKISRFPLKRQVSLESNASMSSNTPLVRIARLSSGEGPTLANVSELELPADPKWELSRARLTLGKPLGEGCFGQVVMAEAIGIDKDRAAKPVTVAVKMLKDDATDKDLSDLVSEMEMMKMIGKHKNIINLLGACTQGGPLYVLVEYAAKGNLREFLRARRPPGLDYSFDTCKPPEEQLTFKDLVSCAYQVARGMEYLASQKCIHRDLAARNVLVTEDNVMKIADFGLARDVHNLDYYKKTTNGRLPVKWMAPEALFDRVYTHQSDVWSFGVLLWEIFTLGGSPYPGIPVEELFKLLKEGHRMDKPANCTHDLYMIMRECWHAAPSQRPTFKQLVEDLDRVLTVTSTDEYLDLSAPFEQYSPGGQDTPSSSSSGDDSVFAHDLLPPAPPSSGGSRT
Sequence of Platelet-derived growth factor receptor beta (Homo sapiens) (P09619 whole entry, the tested form may be a part): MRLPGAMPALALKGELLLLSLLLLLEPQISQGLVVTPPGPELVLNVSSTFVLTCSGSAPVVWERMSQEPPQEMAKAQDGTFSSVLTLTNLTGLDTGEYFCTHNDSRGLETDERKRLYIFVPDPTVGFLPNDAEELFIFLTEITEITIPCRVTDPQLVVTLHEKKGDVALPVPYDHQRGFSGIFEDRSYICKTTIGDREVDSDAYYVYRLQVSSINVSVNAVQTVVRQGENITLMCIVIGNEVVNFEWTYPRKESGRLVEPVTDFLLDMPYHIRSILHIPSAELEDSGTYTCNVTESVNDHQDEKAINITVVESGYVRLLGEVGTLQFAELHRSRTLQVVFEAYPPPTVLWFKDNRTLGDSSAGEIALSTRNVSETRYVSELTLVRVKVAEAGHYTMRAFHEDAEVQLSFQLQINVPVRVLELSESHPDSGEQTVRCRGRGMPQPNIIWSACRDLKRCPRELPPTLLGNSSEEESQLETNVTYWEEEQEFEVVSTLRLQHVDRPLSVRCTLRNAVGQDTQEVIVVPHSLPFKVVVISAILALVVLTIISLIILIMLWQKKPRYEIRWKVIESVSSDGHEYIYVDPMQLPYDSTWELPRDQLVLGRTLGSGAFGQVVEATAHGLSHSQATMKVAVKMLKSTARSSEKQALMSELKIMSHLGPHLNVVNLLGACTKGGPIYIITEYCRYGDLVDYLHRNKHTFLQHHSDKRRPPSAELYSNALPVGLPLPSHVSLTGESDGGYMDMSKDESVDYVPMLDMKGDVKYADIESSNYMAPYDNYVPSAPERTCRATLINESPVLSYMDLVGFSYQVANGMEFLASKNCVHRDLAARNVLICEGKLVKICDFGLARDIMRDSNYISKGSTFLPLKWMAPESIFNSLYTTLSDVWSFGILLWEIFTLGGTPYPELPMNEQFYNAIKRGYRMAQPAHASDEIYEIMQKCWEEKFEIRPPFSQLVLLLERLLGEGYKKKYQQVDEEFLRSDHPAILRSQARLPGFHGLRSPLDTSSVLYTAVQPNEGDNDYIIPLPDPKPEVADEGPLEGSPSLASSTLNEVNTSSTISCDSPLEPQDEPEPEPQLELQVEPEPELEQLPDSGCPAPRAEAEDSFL
Sequence of RAC-beta serine/threonine-protein kinase (Homo sapiens) (P31751 whole entry, the tested form may be a part): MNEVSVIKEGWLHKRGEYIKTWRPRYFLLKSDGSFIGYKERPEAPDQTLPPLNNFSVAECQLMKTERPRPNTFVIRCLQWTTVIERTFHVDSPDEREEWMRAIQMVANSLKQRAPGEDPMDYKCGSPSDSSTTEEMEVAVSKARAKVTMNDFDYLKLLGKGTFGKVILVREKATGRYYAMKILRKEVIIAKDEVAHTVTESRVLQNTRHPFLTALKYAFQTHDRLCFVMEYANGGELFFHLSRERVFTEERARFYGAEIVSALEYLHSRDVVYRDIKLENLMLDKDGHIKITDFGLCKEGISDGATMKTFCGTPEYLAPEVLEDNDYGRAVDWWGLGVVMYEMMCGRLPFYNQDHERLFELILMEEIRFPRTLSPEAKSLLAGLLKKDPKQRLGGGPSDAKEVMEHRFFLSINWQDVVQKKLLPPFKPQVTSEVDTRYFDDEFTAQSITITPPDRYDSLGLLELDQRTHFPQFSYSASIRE
Sequence of RAC-alpha serine/threonine-protein kinase (Homo sapiens) (P31749 whole entry, the tested form may be a part): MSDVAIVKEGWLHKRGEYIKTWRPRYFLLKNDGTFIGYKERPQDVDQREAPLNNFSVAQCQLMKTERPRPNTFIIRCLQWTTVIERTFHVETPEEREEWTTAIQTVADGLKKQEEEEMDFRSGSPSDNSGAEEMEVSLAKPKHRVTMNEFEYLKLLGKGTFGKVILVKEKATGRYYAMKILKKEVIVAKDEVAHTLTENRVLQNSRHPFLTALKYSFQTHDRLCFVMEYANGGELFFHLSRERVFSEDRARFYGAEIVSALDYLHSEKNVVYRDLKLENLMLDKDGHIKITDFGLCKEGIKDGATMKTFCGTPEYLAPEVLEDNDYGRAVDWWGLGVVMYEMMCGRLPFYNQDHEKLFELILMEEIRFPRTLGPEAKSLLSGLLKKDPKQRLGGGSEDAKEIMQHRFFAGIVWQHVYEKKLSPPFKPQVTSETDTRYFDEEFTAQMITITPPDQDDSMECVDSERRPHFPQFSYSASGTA
Sequence of Mitogen-activated protein kinase 3 (Homo sapiens) (P27361 whole entry, the tested form may be a part): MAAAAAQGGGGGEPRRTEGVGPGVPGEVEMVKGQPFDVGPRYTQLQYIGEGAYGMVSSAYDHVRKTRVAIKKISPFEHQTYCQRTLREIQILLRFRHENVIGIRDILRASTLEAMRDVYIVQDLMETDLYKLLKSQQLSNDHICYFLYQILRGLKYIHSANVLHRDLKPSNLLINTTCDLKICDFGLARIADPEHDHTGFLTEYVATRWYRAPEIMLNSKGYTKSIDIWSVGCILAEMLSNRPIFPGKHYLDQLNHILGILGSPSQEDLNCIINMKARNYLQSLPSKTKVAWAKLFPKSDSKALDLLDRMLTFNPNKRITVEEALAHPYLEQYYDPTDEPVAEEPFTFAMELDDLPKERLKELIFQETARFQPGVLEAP

## COc1ccc(OC)c(Nc2cc(NC(=O)Nc3c(Cl)cccc3Cl)ncn2)c1
[1]
  inhibition: 0.85%
[2]
  inhibition: 4.4%
[3]
  Activity: 13%
NCI-H226 [4]
  Activity: 3.5%
[5]
  inhibition: 15.8%
[6]
  viability at 10 µM: 51.5%
[7]
  IC50: 930 nM
Homo sapiens
  inhibition: Dose-dependent effect
[8]
  inhibition: Active
[9]
  inhibition: 8.2%
[10]
  inhibition: 48.1%
[11]
  inhibition: 22.3%
[12]
  Activity: 0.41 g
[13]
  inhibition: 19.4%
[14]
  inhibition: 56.2%
[15]
  Activity: 1.7%
NCI-H226 [16]
  Activity: 6.3%
[17]
  inhibition: 13.9%
[18]
  IC50: 73 nM
[19]
  half-life: 424 min
HCC827
  inhibition at 10 µM: 94%
[20]
  AUC(0-t) at 24 h: 9690 ng·h/mL
[21]
  inhibition: 12.7%
NCI-H226 [22]
  Activity: 8.9%
NCI-H226 [23]
  IC50: 2260 nM
[24]
  inhibition: 9.31%
[25]
  viability at 2.5 µM: 79.5%
